22 compounds from patent publication US12678446B2 (PFIZER INC., priority 2020, dated 2026) can be followed below.

Where two headings read alike, the source gives them in different places.

In one data set the test system is Hep-G2 cells. The data set can be described thus: cell toxicity CC50. The note with it: mean of at least two experiments, read-out: Cell Cytotoxicity CC50. Type of data set: cell-based.
The subject of data set [1] is RSV (RSV A2 ECACC, 0709161v). In words: RSV plaque reduction assay. Type of data set: cell-based, respiratory syncytial virus. The note with it: mean of at least two experiments unless noted (n = 1). The procedure, abridged: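 Hep-G2 monolayers infected with 100 PFU/well RSV A2 premixed with eight serial compound dilutions (2 h, 37° C.), then kept 2 days under CMC overlay with compound in DMEM/2% FBS. Plaques immunostained (HRP/TrueBlue) and counted; % infection versus virus control gives EC50, mean of at least two experiments, rounded.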
(In a plaque reduction assay, fewer plaques than in the control indicate reduced infectivity or spread.)

The nature of a further data set: cell toxicity CC50. In kind it is cell-based. The note with it: human; Hep-G2 cells; mean of at least two experiments; read-out: Cell Cytotoxicity CC50.
[2] abbreviates: RSV A2 in Hep-G2 cells, read-out: RSV A2 Plaque EC50.
Setting [3] is: read-out: RSV A2 Plaque EC50, RSV A2 in Hep-G2 cells.
Setting [4] is: human respiratory syncytial virus, HepG2, read-out: RSV A2 Plaque EC50, RSV A2 in Hep-G2 cells.

Broadly, the CC50 is the concentration that lowers cell viability or growth by half. Usually EC50 stands for the concentration giving half of the maximal effect. For “2-(2,6-Difluorophenyl)-N-[(3S)-9-fluoro-2-oxo-5-phenyl-1,3-dihydro-1,4-benzodiazepin-3-yl]-6,7-dihydro-5H-pyrazolo[5,1-b][1,3]oxazine-3-carboxamide [Example 196]”, in the data set on Hep-G2 cells, the half-maximal cytotoxic concentration (CC50) is greater than 25 µM. For the same compound, the EC50 in data set [1] (setting [2]) was 25 nM.
On to “2-[2-Fluoro-4- (hydroxymethyl)phe- nyl]-N-[(3S)-9- fluoro-2-oxo-5- phenyl-1,3-dihydro- 1,4-benzodiazepin-3- yl]-6,7-dihydro-5H- pyrazolo[5,1- b][1,3]oxazine-3- carboxamide [Example 134]”, for which the CC50 in the data set on Hep-G2 cells was greater than 25 µM. Further, in data set [1] (setting [2]), the EC50 was 83 nM.
In the case of `O=C(N[C@H]1N=C(c2ccccc2)c2cccc(F)c2NC1=O)c1c(-c2ccccc2F)nn2c1OCC(CO)C2` (single isomer, unassigned) [Example 110-2, (6S*)-N-[(3S)-9-fluoro-2-oxo-5-phenyl-1,3-dihydro-1,4-benzodiazepin-3-yl]-2-(2-fluorophenyl)-6-(hydroxymethyl)-6,7-dihydro-5H-pyrazolo[5,1-b][1,3]oxazine-3-carboxamide], the CC50 in the data set with Hep-G2 cells was greater than 25 µM. The EC50 in data set [1] (setting [3]) was determined as 61 nM.
On the same counts, the results for `O=C(N[C@H]1N=C(c2ccccc2)c2cccc(F)c2NC1=O)c1c(-c2c(F)cccc2F)nn2c1OCC(CO)C2` (single isomer, unassigned) [Example 129-2, (6S*)-2-(2,6-Difluorophenyl)-N-[(3S)-9-fluoro-2-oxo-5-phenyl-1,3-dihydro-1,4-benzodiazepin-3-yl]-6-(hydroxymethyl)-6,7-dihydro-5H-pyrazolo[5,1-b][1,3]oxazine-3-carboxamide] are greater than 25 µM and 73 nM.
On to `O=C(N[C@H]1N=C(c2ccccc2)c2ccccc2NC1=O)c1c(-c2c(F)cccc2F)nn2c1OC(CO)CC2` (single isomer, unassigned) [Example 188-2, (5S*)-2-(2,6-Difluorophenyl)-5-(hydroxymethyl)-N-[(3S)-2-oxo-5-phenyl-1,3-dihydro-1,4-benzodiazepin-3-yl]-6,7-dihydro-5H-pyrazolo[5,1-b][1,3]oxazine-3-carboxamide], for which the CC50 in the data set with Hep-G2 cells is greater than 25 µM. Also, the EC50 in data set [1] (setting [3]) was determined as 281 nM.
On to `O=C(N[C@H]1N=C(c2ccccc2)c2cccc(F)c2NC1=O)c1c(-c2c(F)cccc2F)nn2c1OC(CO)CC2` (single isomer, unassigned) [Example 189-2, (5S*)-2-(2,6-Difluorophenyl)-N-[(3S)-9-fluoro-2-oxo-5-phenyl-1,3-dihydro-1,4-benzodiazepin-3-yl]-5-(hydroxymethyl)-6,7-dihydro-5H-pyrazolo[5,1-b][1,3]oxazine-3-carboxamide], for which the CC50 in the data set with Hep-G2 cells was greater than 25 µM. For the same compound, the EC50 in data set [1] (setting [3]) is 72 nM.
Take `O=C(N[C@H]1N=C(c2ccccc2)c2cccc(F)c2NC1=O)c1c(-c2ccccc2F)nn2c1OC(CO)CC2` (single isomer, unassigned) [Example 190-2, (5S*)-2-(2-Fluorophenyl)-5-(hydroxymethyl)-N-[(3S)-9-fluoro-2-oxo-5-phenyl-1,3-dihydro-1,4-benzodiazepin-3-yl]-6,7-dihydro-5H-pyrazolo [5,1-b][1,3]oxazine-3-carboxamide]: in the data set with Hep-G2 cells, the CC50 was greater than 25 µM. Moreover, the EC50 in data set [1] (setting [3]) was 154 nM.
For `COCC1CCn2nc(-c3ccccc3F)c(C(=O)N[C@H]3N=C(c4ccccc4)c4cccc(F)c4NC3=O)c2O1` (single isomer, unassigned) [Example 191-2, (5S*)-N-[(3S)-9-fluoro-2-oxo-5-phenyl-1,3-dihydro-1,4-benzodiazepin-3-yl]-2-(2-fluorophenyl)-5-(methoxymethyl)-6,7-dihydro-5H-pyrazolo[5,1-b][1,3]oxazine-3-carboxamide], in that order: greater than 25 µM and 280 nM.
Turning to `CCNc1ccc(-c2nn3c(c2C(=O)N[C@H]2N=C(c4ccccc4)c4cccc(F)c4NC2=O)OCCC3)c(F)n1` [Example 3, 2-[6-(Ethylamino)-2-fluoropyridin-3-yl]-N-[(3S)-9-fluoro-2-oxo-5-phenyl-1,3-dihydro-1,4-benzodiazepin-3-yl]-6,7-dihydro-5H-pyrazolo[5,1-b][1,3]oxazine-3-carboxamide], in the data set on Hep-G2 cells, the CC50 is greater than 25 µM. Besides, the EC50 in data set [1] (setting [2]) was determined as 20 nM.
As for `O=C(N[C@H]1N=C(c2ccccc2)c2cccc(F)c2NC1=O)c1c(-c2ccccc2F)nn2c1OC(CO)CC2` (stereo partly drawn) [Example 123, N-[(3S)-9-Fluoro-2-oxo-5-phenyl-1,3-dihydro-1,4-benzodiazepin-3-yl]-2-(2-fluorophenyl)-5-(hydroxymethyl)-6,7-dihydro-5H-pyrazolo[5,1-b][1,3]oxazine-3-carboxamide], the CC50 with Hep-G2 cells was greater than 25 µM. Further, the EC50 in data set [1] (setting [2]) is 79 nM.
`CCS(=O)(=O)N1CCC(c2nn3c(c2C(=O)N[C@H]2N=C(c4ccccc4)c4cccc(F)c4NC2=O)O[C@H](C)CC3)CC1` [Example 201, (5R)-2-(1-Ethylsulfonylpiperidin-4-yl)-N-[(3S)-9-fluoro-2-oxo-5-phenyl-1,3-dihydro-1,4-benzodiazepin-3-yl]-5-methyl-6,7-dihydro-5H-pyrazolo[5,1-b][1,3]oxazine-3-carboxamide]: the CC50 in “cell toxicity CC50” is greater than 25 µM. Also, the EC50 in data set [1] (setting [4]) was 49 nM.
For `C[C@@H]1Cn2nc(-c3ccccc3F)c(C(=O)N[C@H]3N=C(c4ccccc4)c4ccccc4NC3=O)c2O1` [Example 202, (2R)-6-(2-Fluorophenyl)-2-methyl-N-[(3S)-2-oxo-5-phenyl-1,3-dihydro-1,4-benzodiazepin-3-yl]-2,3-dihydropyrazolo[5,1-b][1,3]oxazole-7-carboxamide], in that order: greater than 25 µM and 127 nM.
Regarding “(5R)-2-(2-Fluoro-6-methylpyridin-3-yl)-5-methyl-N-[(3S)-2-oxo-5-phenyl-1,3-dihydro-1,4-benzodiazepin-3-yl]-6,7-dihydro-5H-pyrazolo[5,1-b][3,1]oxazine-3-carboxamide [Example 72]”, in the data set on Hep-G2 cells, the CC50 is greater than 25 µM. In data set [1] (setting [2]), the EC50 came to 100 nM.
For “(5R)-2-[1- (Difluoromethyl)pyra- zol-4-yl]-N-[(3S)-9- fluoro-2-oxo-5- phenyl-1,3-dihydro- 1,4-benzodiazepin-3- yl]-5-methyl-6,7- dihydro-5H- pyrazolo[5,1- b][1,3]oxazine-3- carboxamide [Example 120]”, in that order: greater than 25 µM and 97 nM.
For “(5R)-2-[2-Fluoro-4- (hydroxymethyl)phe- nyl]-N-[(3S)-9- fluoro-2-oxo-5- phenyl-1,3-dihydro- 1,4-benzodiazepin-3- yl]-5-methyl-6,7- dihydro-5H- pyrazolo[5,1- b][1,3]oxazine-3- carboxamide [Example 153]”, in that order: greater than 25 µM and 63 nM.
On the same counts, the results for “(5R)-N-[(3S)-9- fluoro-2-oxo-5- phenyl-1,3-dihydro- 1,4-benzodiazepin-3- yl]-5-methyl-2-(1- propan-2-ylpyrazol- 4-yl)-6,7-dihydro- 5H-pyrazolo[5,1- b][1,3]oxazine-3- carobxamide [Example 112]” are greater than 25 µM and 50 nM.
“(5R)-N-[(3S)-9- fluoro-2-oxo-5- phenyl-1,3-dihydro- 1,4-benzodiazepin-3- yl]-5-methyl-2-[1- (oxan-4-yl)pyrazol- 4-yl]-6,7-dihydro- 5H-pyrazolo[5,1- b][1,3]oxazine-3- carboxamide [Example 111]”: in the data set on Hep-G2 cells, the CC50 is greater than 25 µM. For the same compound, the EC50 in data set [1] (setting [2]) came out at 64 nM.
For “N-[(3S)-9-fluoro-2- oxo-5-phenyl-1,3- dihydro-1,4- benzodiazepin-3-yl]-2- (2-fluorophenyl)-6- (morpholin-4- ylmethyl)-6,7-dihydro- 5H-pyrazolo[5,1- b][1,3]oxazine-3- carboxamide [Example 173]”, in that order: greater than 25 µM and 91 nM.
For “N-[(3S)-9-fluoro-2- oxo-5-phenyl-1,3- dihydro-1,4- benzodiazepin-3-yl]- 2-(2-fluorophenyl)- 6-(hydroxymethyl)- 6,7-dihydro-5H- pyrazolo[5,1- b][1,3]oxazine-3- carboxamide [Example 110]”, in that order: greater than 25 µM and 51 nM.
For “N-[(3S)-9-fluoro-2- oxo-5-phenyl-1,3- dihydro-1,4- benzodiazepin-3-yl]- 2-(2-fluorophenyl)- 6-(methoxymethyl)- 6,7-dihydro-5H- pyrazolo[5,1- b][1,3]oxazine-3- carboxmaide [Example 113]”, in that order: greater than 19.4 µM and 53 nM.
“N-[(3S)-9-fluoro-2- oxo-5-phenyl-1,3- dihydro-1,4- benzodiazepin-3-yl]- 2-(2-fluorophenyl)- 6-(pyrrolidin-1- ylmethyl)-6,7- dihydro-5H- pyrazolo[5,1- b][1,3]oxazine-3- carboxamide [Example 182]”: the 50% cytotoxic concentration (CC50) with Hep-G2 cells was 20.1 µM. The EC50 in data set [1] (setting [2]) is 78 nM.
As for “tert-butyl N-[3- [[(3S)-9-fluoro-2- oxo-5-phenyl-1,3- dihydro-1,4- benzodiazepin-3- yl]carbamoyl]-2-(2- fluorophenyl)-6,7- dihydro-5H- pyrazolo[5,1- b][1,3]oxazin-6-yl]- N-methylcarbamate [Example 107]”, the CC50 in the data set with Hep-G2 cells was greater than 25 µM. For the same compound, the EC50 in data set [1] (setting [2]) came to 93 nM.
